Measurements reported in patent publication US20060019241A1, “Na+ and CI-coupled transport system for endogenous opioid peptides” (priority 2004, published 2006).
“Also recorded” adds a separate entry of the source.

How the values were obtained:
[1] = system: deltorphin II transport system in Tat-ARPE-19 cells; experiment: Inhibition of [^3H]deltorphin II uptake in Tat-ARPE-19 cells; assay type: cell-based, human; conditions: Tat-ARPE-19 cells, [^3H]deltorphin II 50 nM, 30 minutes, NaCl, inhibitor 1 mM
Text: (§1) Stable transfection of ARPE-19 cells with pcDNA-Tat cDNA. The pGEM2-Tat cDNA construct contained as the insert a 295 basepair (bp) fragment encoding the first exon of HIV-1 Tat gene joined to a 145 bp pET3A transcription terminator. The entire insert (440 bp) was removed from the construct by digestion with PstI and EcoRI and ligated into the multiple cloning region of pcDNA3.1 (−) vector at PstI/EcoRI site so that the insert is downstream of the cytomegalovirus (CMV) promoter. The resultant construct was sequenced to confirm the orientation of the insert. This construct was electroporated into ARPE-19 cells and the stably transfected cell clones were isolated in the presence of Geneticin (G418). To serve as a control, empty pcDNA3.1 vector was electroporated into ARPE-19 cells in an identical manner and the clones harboring the vector were selected by G418 resistance.
(§2) Uptake measurements in control ARPE-19 cells and Tat-ARPE-19 cells. Control ARPE-19 cells and Tat-ARPE-19 cells were maintained in 75-cm^2 culture flasks in Dulbecco's modified Eagle's medium/F12 medium (1:1, volume/volume (v/v)) in the presence of fetal bovine serum (10%) and G418 (100 μg/ml). For uptake measurements, cells were released by trypsin treatment and seeded in 24-well culture plates at an initial density of 0.1×10^6 cells/well. The culture medium was replaced with fresh medium on the second day following the initial seeding and uptake measurements were made on the third day. […] After incubation at 37° C. for a desired time, uptake was terminated by the removal of the medium and washing of the cells with ice-cold uptake buffer. The cells were then dissolved in 1% SDS in 0.2 M NaOH and used for measurement of radioactivity. The uptake buffer in most experiments was 25 mM Hepes/Tris (pH 7.5), containing 140 mM NaCl, 5.4 mM KCl, 1.8 mM CaCl2, 0.8 mM MgSO4 and 5 mM glucose.
When the influence of Na^+ on the uptake process was investigated, the concentration of NaCl in the uptake buffer was adjusted, as desired, by isoosmotically replacing NaCl with N-methyl-D-glucamine chloride. To assess the influence of Cl^− on the uptake process, the composition of the uptake medium was modified by replacing KCl and CaCl2 with equimolar concentrations of potassium gluconate and calcium gluconate and the concentration of NaCl was adjusted, as desired, by iso-osmotically replacing NaCl with sodium gluconate. Saturation kinetics were analysed by fitting the data to the Michaelis-Menten equation. The Michaelis-Menten constant, Kt, was calculated by non-linear regression analysis and then confirmed by linear regression. Na^+- and Cl^−-activation kinetics were analyzed by fitting the data to the Hill equation and the Hill coefficients for Na^+ and Cl^− (h; the number of Na^+ and Cl^− ions involved in the activation process) and the K0.5 values (the concentration of Na^+ and Cl^−-needed for half-maximal activation) were determined from the analysis. Again, these constants were first calculated by non-linear regression methods and subsequently confirmed by linear regression methods. Experiments were repeated three times in duplicate and the results are given as means±S.E.M.
(§3) Substrate specificity of the deltorphin transport system. […] These peptides consisted of 4-13 amino acids.
Relative affinities of endogenous opioid peptides for the transport system.

[2] = system: deltorphin II transport system in control ARPE-19 cells; experiment: Inhibition of [^3H]deltorphin II uptake in control ARPE-19 cells; assay type: cell-based, human; conditions: [^3H]deltorphin II 50 nM, 30 minutes, NaCl, peptide/antagonist 1 mM
Text: as §1, §2, §3

[3] = system: deltorphin II uptake inducible by rMC-1 mRNA in X. laevis oocytes; experiment: Deltorphin II uptake in X. laevis oocytes injected with rMC-1 mRNA; assay type: cell-based, rat; conditions: X. laevis oocytes injected with rMC-1 poly(A)+ mRNA, deltorphin II 125 nM
Protocol: Therefore, functional expression of the deltorphin II transport system in X. laevis oocytes will be used to clone this transport system. […] Poly(A)+ mRNA was prepared from this cell line for functional expression studies in X. laevis oocytes.

[4] = system: enkephalin/endorphin transport system in SK—N—SH cells; experiment: [^3H]deltorphin II uptake in SK—N—SH cells, effect of peptides and amino acids; assay type: cell-based, human; conditions: for influence on kinetics of deltorphin II uptake / type of inhibition: 250 μM L-Lysine; for effect on [^3H]deltorphin II uptake (in words): test substance 1 mM
Protocol: as §2
Since enkephalins and endorphins are relevant to pain perception and to further provide evidence in support of a role for the transport system in opioidergic neurotransmission, the human neuronal cell line SK—N—SH was tested for expression of the transport system. […] Unless otherwise specified, procedures are as detailed in Example 1.
The concentration of enkephalins and dynorphins was 1 mM.
Finally, the relative affinity of various enkephalins and dynorphins for the transport system in SK—N—SH cells was determined.
To the further characterize the opioid transport of the present invention, various specific peptides that act as positive modulators of the enkephalin/endorphin transport system in the human neuronal cell line SK—N—SH were identified. Unless otherwise specified, procedures are as detailed in Example 1. […] Uptake was measured in the presence of NaCl for 30 minutes. The concentration of the dipeptides was 1 mM.
Uptake was measured in the presence of NaCl for 30 minutes. The concentration of the tripeptides was 1 mM.
Unless otherwise specified, procedures are as described in more detail in Example 1.
The dose-response relationship for the inhibition of the enkephalin/endorphin transport system by L-Lysine and its methyl and ethyl esters is shown in FIG. 15.

SK—N—SH cells = experiment: L-lysine uptake in SK—N—SH cells; assay type: cell-based, human
Protocol: Whether or not L-lysine is a transportable substrate for the opioid peptide transport system was tested. For this, uptake of L-lysine was studied and the influence of Na^+ and opioid peptides assessed in SK—N—SH cells.

[5] = system: opioid peptide transport system in rMC-1 cells; experiment: Opioid peptide transport in rMC-1 cells; assay type: cell-based, rat

With YGGFLRRQF [Dynorphin B (1-9)] the “[^3H] Deltorphin II uptake” value [1] was 0.08 ± 0.01 pmol/mg protein/30 min, the “[^3H] Deltorphin II uptake (%) of control” value ([1]; control = 100) was 1% and the “[^3H] Deltorphin II uptake” value ([2]; control ARPE-19 cells (pcDNA vector alone)) was 0.06 ± 0.000 pmol/mg protein/30 min. For the same compound, the “[^3H] Deltorphin II uptake (%) of control” value ([2]; control ARPE-19 cells, control = 100) was 5%, the “inhibition of mRNA-induced deltorphin II uptake (in words)” value (“inhibition … (in words)” below) ([3]; listed as dynorphin B 1-9) was “completely inhibitable” and the “inhibition … (in words)” value ([3]; listed as dynorphin B1-9) was “completely inhibited”.

For `C[C@]12CC[C@@H]3c4ccc(OS(=O)(=O)O)cc4CC[C@H]3[C@@H]1CCC2=O` [estrone-3-sulfate], the “inhibition … (in words)” value [3] was “only a slight inhibition; also recorded: only slightly inhibited”.

For `NCCCC[C@H](N)C(=O)O` [L-Lys, L-lysine], the “interaction with the opioid peptide transport system (in words, summary of Examples)” value [4] was “inhibited; also recorded: not a transportable substrate but a blocker”, the “influence on kinetics of deltorphin II uptake / type of inhibition” value ([4]; listed as L-Lysine) was “decreased the maximal velocity of the transport system without affecting the affinity for deltorphin II; also recorded: decreasing the maximal velocity without affecting the substrate affinity” and the “influence on kinetics of deltorphin II uptake / type of inhibition” value ([4]; listed as L-lysine) was “non-competitive”. The “Deltorphin II uptake” value ([4]; [^3H]deltorphin II 25 nM, NaCl, 30 minutes, compound 1 mM) was 0.26 ± 0.01 pmol/30 min/mg protein, the “effect on [^3H]deltorphin II uptake (in words)” value ([4]; [^3H]deltorphin II 25 nM, NaCl, 30 minutes, listed as L-Lysine) was “significant inhibition; also recorded: most potent inhibitors” and the “effect on [^3H]deltorphin II uptake (in words)” value ([4]; [^3H]deltorphin II 25 nM, NaCl, 30 minutes, listed as L-lysine) was “greatest inhibition; also recorded: inhibit the uptake to a marked extent”. For the same compound, the Ki ([4]; read-out: Ki for inhibition of deltorphin II uptake, dose-response studies) was 160 ± 19 µM, the “L-lysine uptake: influence of Na^+ and opioid peptides; transportable substrate or not” value (SK—N—SH cells) was “not Na^+-dependent and is insensitive to opioid peptides; also recorded: not a transportable substrate” and the “interaction with the opioid peptide transport system (in words)” value [5] was “inhibited; also recorded: not a transportable substrate but a blocker”.
